We go through 1 compound from patent US20150104868A1, “Methods of Maintaining and Improving Biological Cell Function and Activity” (GARGILL INCORPORATED, priority 2012, published 2015).

One data set has as its system HUVEC cells. In words: Oxidative damage: protein carbonyls in HUVEC. The format is cell-based, human. The conditions noted are these: HG 30 mM glucose 24 h, with or without 5 mM ERT/MAN. On the procedure: The prepared cells were seeded in 6 well plates and T75 flasks and grown until 80% confluence. The medium was removed, and the cells were washed with Hank's Balanced Salt Solution (HBSS). […] The vehicle solution is the solvent for the test compounds, in this case being the medium without supplements. […] The cells described above were also incubated for 24 hours with a 7 mM, normal glucose (NG) solution or in some instances, with a 15 mM, intermediary glucose (IG) solution. See, for example, FIG. 6. Subsequently, the cells were incubated for 24 hours. The same protocol was used for incubation with Nε-(carboxymethyl)lysine (CML, final concentration 1 micromolar) and 1,3-morpholino sidnonimine (SIN-1, final concentration 0.5 mM). […] Hyperglycemia is strongly associated with oxidative stress, an imbalance between the formation of reactive oxygen species and the present antioxidants. Excess reactive oxygen species react with critical cellular targets, viz. membrane lipids, proteins and (deoxy)ribonucleic acids. […] Accordingly, one of the targeted assays included studying a comparison of HG to HGERT conditions, where the oxidative damage was evaluated showing that the protein carbonyls decreased from 6.55 nM/mg protein with HG to 3.77 with […]=0.089). Protein carbonyls are end products of reactions between proteins and reactive oxygen species (ROS), formed during oxidative stress. […]

Data set [1] has as its system Mouse intestine (entero-endocrine) STC-1 cells. The conditions noted are these: STC-1 cells, 10% w/v, 2 hours at 37° C. On the procedure:
Appropriate blanks, positive controls, and standards were also included.
The lactate dehydrogenase (LDH) leakage from cells was analyzed in the supernatants as a marker for cytotoxic cell death.

Molecules are shown by their SMILES.

In the data set on HUVEC cells, `OC[C@@H](O)[C@@H](O)CO` [ERT, meso-1,2,3,4-tetrahydroxybutane] came in with a protein carbonyls of 3.77 nM/mg protein. The “cell death (leakage of lactate dehydrogenase)” value in data set [1] was “cells could tolerate higher concentrations of ERT than glucose and other sugars tested”.
